Drawing on US20240197888A1, “SOS1 PROTEIN DEGRADERS, PHARMACEUTICAL COMPOSITIONS THEREOF, AND THEIR THERAPEUTIC APPLICATIONS” (BioTheryX, Inc., priority 2021, published 2024), this text covers IC50 for 14 molecules.

Holding throughout (type): cell-based
The test system of assay [1] is Lovo (G13D) cells. The assay is described as follows: Cell viability assay (CELLTITER-GLO), Lovo cells. Particulars: Homo sapiens, 72 h, Inhibition of cancerous cells, 3 days incubation, luminescence. The procedure: (§1) AsPC-1, H358, and SW48 cells were cultured in RPMI 1640 media supplemented with 10% fetal bovine serum, streptomycin, and penicillin. Lovo and SW480 cells were cultured in DMEM media supplemented with 10% fetal bovine serum, streptomycin, and penicillin. The cell lines were plated in their respective medium supplemented with 2.5% fetal bovine serum, streptomycin, and penicillin. All cell lines were plated in white walled 96-well plates at 2,000 cells/well or 384-well plates at 500 cells/well, except Lovo, which were plated at 4,000 or 1,000 cells/well, respectively. The cells were incubated in DMSO (control) or a compound for 3 days at 37° C. under 5% CO2. A CELLTITER-GLO® reagent ([…] was then added to each well. After a 10 min incubation with shaking, luminescence was measured using an ENVISION® multimode plate reader. IC50 values are summarized in Table 1.

In assay [2] the test system is SW480 (G12V) cells. Kind of assay: Cell viability assay (CELLTITER-GLO), SW480 cells. As to conditions: Homo sapiens, 72 h, Inhibition of cancerous cells, 3 days incubation, luminescence. As for the experimental part: as §1
The test system of assay [3] is SW48 (wt) cells. Kind of assay: Cell viability assay (CELLTITER-GLO), SW48 cells. Particulars: Homo sapiens, 72 h, Inhibition of cancerous cells, 3 days incubation, luminescence. The procedure: as §1
The subject of assay [4] is H358 (G12C) cells. The assay is described as follows: Cell viability assay (CELLTITER-GLO), H358 cells. As to conditions: Homo sapiens, NCI-H358, 72 h, Inhibition of cancerous cells, 3 days incubation, luminescence. The procedure: as §1
Assay [5] concerns AsPC-1 (G12D) cells. The assay is described as follows: Cell viability assay (CELLTITER-GLO), AsPC-1 cells. Particulars: Homo sapiens, ASPC1, 72 h, Inhibition of cancerous cells, 3 days incubation, luminescence. As for the experimental part: as §1

The structures appear in SMILES notation.

Take `CNCc1ccccc1-c1csc([C@@H](C)Nc2nc(C)nc3cc(OCCC(C)(C)C)c(OC)cc23)c1` [Compound A62, (R)-7-(3,3-Dimethylbutoxy)-6-methoxy-2-methyl-N-(1-(4-(2-((methylamino)-methyl)phenyl)thiophen-2-yl)ethyl)quinazolin-4-amine]: the IC50 stood at 0.5 µM in assay [1]; 0.45 µM in assay [2]; 0.53 µM in assay [3]; 1.3 µM in assay [4]; 1.1 µM in assay [5].

As to `CNCc1ccccc1-c1csc([C@H](C)Nc2nc(C)nc3cc(OCCC(C)(C)C)c(OC)cc23)c1` [Compound A63, (S)-7-(3,3-Dimethylbutoxy)-6-methoxy-2-methyl-N-(1-(4-(2-((methylamino)-methyl)phenyl)thiophen-2-yl)ethyl)quinazolin-4-amine], the IC50 is 0.42 µM in assay [1]; 0.46 µM in assay [2]; 0.53 µM in assay [3]; 1.1 µM in assay [4]; 1 µM in assay [5].

Turning to `CNCc1ccccc1-c1csc([C@@H](C)Nc2nc(C)nc3cc(OCCCCCCCN4CCN(C(C)=O)CC4)c(OC)cc23)c1` [Compound A64, (R)-1-(4-(7-((6-Methoxy-2-methyl-4-((1-(4-(2-((methylamino)methyl)phenyl)-thiophen-2-yl)ethyl)amino)quinazolin-7-yl)oxy)heptyl)piperazin-1-yl)ethan-1-one], the IC50 was 0.45 µM in assay [1]; 0.46 µM in assay [2]; 0.68 µM in assay [3]; 1.4 µM in assay [4]; 1.1 µM in assay [5].

For the molecule `CNCc1ccccc1-c1csc([C@H](C)Nc2nc(C)nc3cc(OCCCCCCCN4CCN(C(C)=O)CC4)c(OC)cc23)c1` [Compound A65, (S)-1-(4-(7-((6-Methoxy-2-methyl-4-((1-(4-(2-((methylamino)methyl)phenyl)-thiophen-2-yl)ethyl)amino)quinazolin-7-yl)oxy)heptyl)piperazin-1-yl)ethan-1-one], the IC50 in assay [1] worked out at 0.34 µM; in assay [2], 0.38 µM; in assay [3] it was 0.53 µM; in assay [4] it was 1.1 µM; in assay [5], 0.68 µM.

As for `CNCc1ccccc1-c1csc([C@@H](C)Nc2nc(C)nc3cc(OCCCCCCCN4CCC(C(F)(F)F)CC4)c(OC)cc23)c1` [Compound A67, (R)-6-Methoxy-2-methyl-N-(1-(4-(2-((methylamino)methyl)phenyl)thiophen-2-yl)ethyl)-7-((7-(4-(trifluoromethyl)piperidin-1-yl)heptyl)oxy)quinazolin-4-amine], the IC50 amounted to 0.54 µM in assay [1]; 0.44 µM in assay [2]; 0.53 µM in assay [3]; 1.2 µM in assay [4]; 0.59 µM in assay [5].

Regarding `CNCc1ccccc1-c1csc([C@@H](C)Nc2nc(C)nc3cc(OCCCCCCC(=O)N4CCCCC4)c(OC)cc23)c1` [Compound A68, (R)-7-((6-Methoxy-2-methyl-4-((1-(4-(2-((methylamino)methyl)phenyl)thiophen-2-yl)ethyl)amino)quinazolin-7-yl)oxy)-1-(piperidin-1-yl)heptan-1-one], the IC50 was 0.36 µM in assay [1]; 0.36 µM in assay [2]; 0.55 µM in assay [3]; 0.65 µM in assay [4]; 1.5 µM in assay [5].

With `CNCc1ccccc1-c1csc([C@H](C)Nc2nc(C)nc3cc(OCCCCCCC(=O)N4CCCCC4)c(OC)cc23)c1` [Compound A69, (S)-7-((6-Methoxy-2-methyl-4-((1-(4-(2-((methylamino)methyl)phenyl)thiophen-2-yl)ethyl)amino)quinazolin-7-yl)oxy)-1-(piperidin-1-yl)heptan-1-one], the IC50 in assay [1] was found to be 0.72 µM; in assay [2] it was 0.41 µM; in assay [3], 0.66 µM; in assay [4], 0.93 µM; in assay [5], 2 µM.

`COc1cc2c(N[C@H](C)c3cccc(Br)c3)nc(C)nc2cc1OCCCCCCCNCCC(F)(F)F` [Compound A70, (R)—N-(1-(3-Bromophenyl)ethyl)-6-methoxy-2-methyl-7-((7-((3,3,3-trifluoro-propyl)amino)heptyl)oxy)quinazolin-4-amine]: the IC50 stood at 0.5 µM in assay [1]; 0.93 µM in assay [2]; 0.98 µM in assay [3]; 1.4 µM in assay [4]; 1.3 µM in assay [5].

With `COc1cc2c(N[C@H](C)c3cccc(Br)c3)nc(C)nc2cc1OCCCCCCCN1CCC2(CCNCC2)CC1` [Compound A71, (R)-7-((7-(3,9-Diazaspiro[5.5]undecan-3-yl)heptyl)oxy)-N-(1-(3-bromophenyl)-ethyl)-6-methoxy-2-methylquinazolin-4-amine], the IC50 in assay [1] turned out to be 1.4 µM; in assay [2], 1.5 µM; in assay [3], 1.4 µM; in assay [4] it was 2.8 µM; in assay [5], 2.7 µM.

In the case of `COc1cc2c(N[C@H](C)c3cccc(Br)c3)nc(C)nc2cc1OCCCCCCCN1CCC2(CC1)CCN(C(=O)OC(C)(C)C)CC2` [Compound A72, Tert-butyl (R)-9-(7-((4-((1-(3-bromophenyl)ethyl)amino)-6-methoxy-2-methyl-quinazolin-7-yl)oxy)heptyl)-3,9-diazaspiro[5.5]undecane-3-carboxylate], the IC50 in assay [1] is 0.39 µM; in assay [2], 0.48 µM; in assay [3] it was 0.64 µM; in assay [4], 1.1 µM; in assay [5], 1 µM.

Consider `COc1cc2nc(C)nc(N[C@H](C)c3cccc(Br)c3)c2cc1OC` [reference compound], for which the IC50 in assay [1] was 2.5 µM; in assay [2], 3.4 µM; in assay [3], 3.6 µM; in assay [4], 3.2 µM; in assay [5], 5.1 µM.

Regarding `CNCc1ccccc1-c1csc([C@@H](C)Nc2nc(C)nc3cc(OC)c(OC)cc23)c1` [reference compound], the IC50 in assay [1] amounted to 0.69 µM; in assay [2], 1 µM; in assay [3], 1.3 µM; in assay [4], 1.7 µM; in assay [5] it was 3.5 µM.

Regarding `COc1cc2nc(C)nc(N[C@H](C)c3cc(N)cc(C(F)(F)F)c3)c2cc1OC` [reference compound], the IC50 in assay [1], in assay [2], in assay [3], in assay [4] and in assay [5] was above 10 µM throughout.

Take `COc1cc2nc(C)nc(N[C@H](C)c3cccc(C(F)(F)CO)c3)c2cc1OC` [reference compound]: the IC50 in assay [1], in assay [2], in assay [3], in assay [4] and in assay [5] was above 10 µM throughout.
